pIC50: −log10 of the molar value. In brackets after ≈: the same amount, converted by molar mass.
Experiments:
A-375 [1] = assay: Cytotoxicity against human A-375 cells assessed as reduction in cell viability incubated for 24 hrs by CCK-8 assay; assay type: functional, cell-based; settings: A-375, 24 h
SK-MEL-28 = assay: Cytotoxicity against human SK-MEL-28 cells assessed as reduction in cell viability incubated for 24 hrs by CCK-8 assay; assay type: functional, cell-based; settings: SK-MEL-28, 24 h
B16 = assay: Cytotoxicity against mouse B16 cells assessed as reduction in cell viability incubated for 24 hrs by CCK-8 assay; assay type: functional, cell-based; settings: B16, 24 h
[2] = (§1) Cytotoxicity against human HaCaT cells assessed as reduction in cell viability incubated for 24 hrs by CCK-8 assay; assay type: toxicity, cell-based; settings: HaCaT cells
Deoxyhypusine synthase = target: T1, Deoxyhypusine synthase (Homo sapiens, UniProt P49366); assay: Inhibition of DHPS (unknown origin ) incubated for 30 mins by NAD/NADH-Glow assay
T1 sequence (P49366 whole entry): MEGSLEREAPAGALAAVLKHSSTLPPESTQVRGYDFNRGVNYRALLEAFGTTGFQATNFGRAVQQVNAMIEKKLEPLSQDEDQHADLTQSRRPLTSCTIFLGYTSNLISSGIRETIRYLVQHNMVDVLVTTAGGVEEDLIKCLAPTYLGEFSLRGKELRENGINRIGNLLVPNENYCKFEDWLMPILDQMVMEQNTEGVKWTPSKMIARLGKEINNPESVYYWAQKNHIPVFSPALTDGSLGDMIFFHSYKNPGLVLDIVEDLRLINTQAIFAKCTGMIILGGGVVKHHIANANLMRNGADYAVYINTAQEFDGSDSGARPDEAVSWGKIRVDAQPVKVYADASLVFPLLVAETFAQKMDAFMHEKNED

HaCaT = assay: as §1; assay type: toxicity, cell-based; settings: hacat, 24 h
[3] = Effect on intracellular ROS content in human HaCaT cells by DCFH-DA staining-based method; assay type: toxicity, cell-based
[4] = Volume of distribution in Sprague-Dawley rat at 160 mg/kg, ip by UHPLC-MS analysis; assay type: ADME, organism-based; settings: in vivo
[5] = Toxicity in Sprague-Dawley rat assessed as effect on serum ALT level at 160 mg/kg, ip (reference value: 33.70 to 98.70 U/L); assay type: organism-based; settings: in vivo
[6] = Acute toxicity in zebra fish assessed as lethal concentration measured for 96 hrs; set-up: species or system Danio rerio; settings: zebrafish
[7] = AUC (0 to infinity) in Sprague-Dawley rat at 160 mg/kg, ip by UHPLC-MS analysis; assay type: ADME, organism-based; set-up: route intraperitoneal, time infinity, dose 160 mg/kg; settings: in vivo
[8] = AUC (0 to t) in Sprague-Dawley rat at 160 mg/kg, ip by UHPLC-MS analysis; assay type: ADME, organism-based; set-up: dose 160 mg/kg; settings: in vivo
A-375 [9] = assay: Anticancer activity against human A-375 cells xenografted in BALB/c mouse assessed as tumor growth inhibition at 80 mg/kg, ip treated every 3 days measured after 3 weeks relative to control; assay type: functional; settings: A-375, ip, 504 h, read-out: TGI
[10] = Toxicity in Sprague-Dawley rat assessed as effect on serum Glu level at 160 mg/kg, ip (reference value: 2.65 to 7.65 mmol/L); assay type: organism-based; settings: in vivo
[11] = Clearance in Sprague-Dawley rat at 160 mg/kg, ip by UHPLC-MS analysis; assay type: ADME, organism-based; settings: in vivo
[12] = Toxicity in Sprague-Dawley rat assessed as effect on serum AST level at 160 mg/kg, ip (reference value: 69.70 to 332.90 U/L); assay type: organism-based; settings: in vivo
[13] = Toxicity in Sprague-Dawley rat assessed as effect on serum CRE level at 160 mg/kg, ip (19.43 to 64.97 micromol/L); assay type: organism-based; settings: in vivo
[14] = Half life in Sprague-Dawley rat at 160 mg/kg, ip by UHPLC-MS analysis; assay type: ADME, organism-based; settings: in vivo
[15] = Aqueous solubility of compound; assay type: physicochemical; settings: buffer

| SMILES | pIC50 (Deoxyhypusine synthase) | pIC50 (A-375 [1]) | pIC50 (SK-MEL-28) | pIC50 (B16) | CC50 at 24 h [2] [µM] | also measured |
| --- | --- | --- | --- | --- | --- | --- |
| COc1ccccc1Oc1c(N)nc(-c2ccc(F)cc2)nc1Cl | 6.19 | 4.55 | 4.50 | 5.52 | 42.6 | – |
| COc1ccccc1Oc1c(N)nc(-c2cccc(Br)c2)nc1Cl | 4.45 | – | – | 4.61 | 16.1 | – |
| COc1ccccc1Oc1c(N)nc(-c2ccc(Cl)cc2)nc1Cl | 7.00 | 5.99 | 6.92 | 4.73 | – | – |
| COc1ccccc1Oc1c(NS(=O)(=O)c2ccc(C(C)(C)C)cc2)nc(-c2ncccn2)nc1OCCO [BOSENTAN] | 4.22 | 4.17 | 4.27 | < 4.10 | – | – |
| COc1ccc(-c2nc(N)c(Oc3ccccc3OC)c(Cl)n2)cc1 | 4.74 | < 4.10 | – | 4.32 | 8.2 | – |
| COc1cccc(-c2nc(N)c(Oc3ccccc3OC)c(Cl)n2)c1 | 7.40 | 4.61 | – | 4.63 | 14 | – |
| COc1ccccc1Oc1c(N)nc(-c2ccccc2F)nc1Cl | 4.89 | < 4.10 | – | 4.86 | > 80 | – |
| COc1ccccc1Oc1c(N)nc(-c2cccc(F)c2)nc1Cl | – | – | – | 4.66 | 17 | – |
| COc1ccc(-c2nc(N)c(Oc3ccccc3OC)c(OCCO)n2)cc1 | – | – | – | 4.74 | – | – |
| COc1ccccc1Oc1c(N)nc(-c2ccc(I)cc2)nc1Cl | 6.74 | 6.32 | 5.90 | 5.27 | – | – |
| COc1ccccc1Oc1c(N)nc(Cc2ccccc2)nc1Cl | 7.30 | 4.80 | 5.06 | 4.41 | 30.6 | – |
| COc1ccccc1Oc1c(N)nc(-c2ccccc2)nc1Cl | 6.28 | 5.14 | 5.50 | 5.34 | – | CC50 (HaCaT): Not Active |
| COc1ccccc1Oc1c(N)nc(-c2ccc(C)cc2)nc1Cl | 4.23 | < 4.10 | – | 4.76 | 6.3 | – |
| COc1ccccc1Oc1c(N)nc(-c2ccc(Br)cc2)nc1Cl | 7.85 | 7.20 | 7.85 | 5.35 | 58.6 | Activity [3]: Non-Toxic; Vd [4]: 228.602 L/kg; Activity [5]: 80.47 U/L; LC50 at 96 h [6]: 3750 µg/mL (≈ 9.23 mM); AUC(0-inf) [7]: 5660 ng·h/mL; AUC(0-t) [8]: 2400 ng·h/mL; inhibition in vivo at 80 mg/kg (A-375 [9]): 50.3%; Activity [10]: 4.345 mmol/L; CL/F [11]: 743 mL/min/kg; Activity [12]: 113.1 U/L; Activity [13]: 24.375 µmol/L; half-life [14]: 3.66 h; logS0 [15]: -4.416 |
| COc1ccccc1Oc1c(N)nc(Cc2ccccc2)nc1OCCO | 6.49 | 6.70 | 4.85 | 4.32 | – | – |
| COc1ccccc1Oc1c(N)nc(-c2cccc(I)c2)nc1Cl | 4.41 | 5.66 | 5.33 | 4.56 | – | – |
| N=C(N)NCCCCCCCN | 5.76 | 5.83 | 6.10 | 5.28 | 3.96 | – |

Further lines, with some results ahead:

| pIC50 (Deoxyhypusine synthase) | SMILES | pIC50 (A-375 [1]) | pIC50 (SK-MEL-28) | pIC50 (B16) | CC50 at 24 h [2] [µM] | also measured |
| --- | --- | --- | --- | --- | --- | --- |
| 6.74 | COc1ccccc1Oc1c(N)nc(-c2ccc(C)cc2)nc1OCCO | 5.62 | 5.21 | 5.07 | 56.6 | – |
| 4.70 | COc1ccccc1Oc1c(N)nc(-c2cccc(Cl)c2)nc1Cl | 4.42 | 4.71 | 4.75 | > 80 | – |
| 5.27 | COc1ccccc1Oc1c(N)nc(-c2ccccc2F)nc1OCCO | < 4.10 | – | 4.93 | 39.5 | – |
| 5.93 | COc1ccccc1Oc1c(N)nc(-c2cccc(C)c2)nc1OCCO | 5.86 | 4.83 | 4.15 | – | – |
| 5.35 | COc1ccccc1Oc1c(N)nc(-c2cccc(Cl)c2)nc1OCCO | 4.52 | 5.38 | 5.30 | – | – |
| 4.42 | COc1ccccc1Oc1c(N)nc(-c2ccc(Cl)cc2)nc1OCCO | < 4.10 | < 4.10 | 5.11 | – | – |
| 4.10 | COc1cccc(-c2nc(N)c(Oc3ccccc3OC)c(OCCO)n2)c1 | – | – | 4.52 | 12.7 | – |
| 6.48 | COc1ccccc1Oc1c(N)nc(-c2cccc(F)c2)nc1OCCO | 5.07 | 5.49 | 4.68 | – | – |
| 5.64 | COc1ccccc1Oc1c(N)nc(-c2ccc(I)cc2)nc1OCCO | – | – | 4.71 | – | – |
| 4.93 | COc1ccccc1Oc1c(N)nc(-c2ccc(Br)cc2)nc1OCCO | 4.99 | 5.36 | 4.93 | – | – |
| 5.37 | COc1ccccc1Oc1c(N)nc(-c2cccc(Br)c2)nc1OCCO | 6.19 | 5.39 | 4.66 | – | – |
| 4.27 | COc1ccccc1Oc1c(N)nc(-c2ccccc2)nc1OCCO | < 4.10 | < 4.10 | 4.51 | – | – |
| 4.47 | COc1ccccc1Oc1c(N)nc(-c2cccc(C)c2)nc1Cl | 4.18 | 4.27 | 4.88 | 11.2 | – |
| 6.25 | COc1ccccc1Oc1c(N)nc(-c2cccc(I)c2)nc1OCCO | 5.91 | 4.95 | 4.69 | – | – |
| 5.62 | COc1ccccc1Oc1c(N)nc(-c2ccc(F)cc2)nc1OCCO | 4.80 | 4.70 | 4.52 | 15.1 | – |

From ChEMBL document CHEMBL5042482, “Novel Allosteric Inhibitors of Deoxyhypusine Synthase against Malignant Melanoma: Design, Synthesis, and Biological Evaluation” (J Med Chem, 2021)
